Measurements from patent US11098046B2, “Macrocyclic compounds as TRK kinase inhibitors and uses thereof” (ANGEX PHARMACEUTICAL, INC., priority 2017, dated 2021).

The compounds below were run against TRK A (Homo sapiens (Human), UniProt P04629) (assay: HotSpot assay platform, radiometric kinase inhibition). Conditions: 100 μM ATP, class symbol.
Assay type: biochemical
Description: The HotSpot assay platform was used to measure kinase/inhibitor interactions as described in Anastassiadis et al., Nat Biotechnol. 29:1039-45, 2011. In brief, for each reaction, kinase and substrate were mixed in a buffer containing 20 mM HEPES (pH 7.5), 10 mM MgCl2, 1 mM EGTA, 0.02% Brij35, 0.02 mg/mL BSA, 0.1 mM Na3VO4, 2 mM DTT, and 1% DMSO. Compounds were then added to each reaction mixture. After a 20-min incubation, ATP (Sigma-Aldrich) and [γ-33P] ATP (PerkinElmer) were added at a final total concentration of 100 μM. Reactions were carried out at room temperature for 2 h and spotted onto P81 ion exchange cellulose chromatography paper (Whatman). Filter paper was washed in 0.75% phosphoric acid to remove unincorporated ATP. The percent remaining kinase activity relative to a vehicle-containing (DMSO) kinase reaction was calculated for each kinase/inhibitor pair. Outliers were identified and removed as described in Anastassiadis et al., Nat Biotechnol. 29:1039-45, 2011. IC50 values were calculated using Prism 5 (GraphPad).

Chain of TRK A (P04629 33-796): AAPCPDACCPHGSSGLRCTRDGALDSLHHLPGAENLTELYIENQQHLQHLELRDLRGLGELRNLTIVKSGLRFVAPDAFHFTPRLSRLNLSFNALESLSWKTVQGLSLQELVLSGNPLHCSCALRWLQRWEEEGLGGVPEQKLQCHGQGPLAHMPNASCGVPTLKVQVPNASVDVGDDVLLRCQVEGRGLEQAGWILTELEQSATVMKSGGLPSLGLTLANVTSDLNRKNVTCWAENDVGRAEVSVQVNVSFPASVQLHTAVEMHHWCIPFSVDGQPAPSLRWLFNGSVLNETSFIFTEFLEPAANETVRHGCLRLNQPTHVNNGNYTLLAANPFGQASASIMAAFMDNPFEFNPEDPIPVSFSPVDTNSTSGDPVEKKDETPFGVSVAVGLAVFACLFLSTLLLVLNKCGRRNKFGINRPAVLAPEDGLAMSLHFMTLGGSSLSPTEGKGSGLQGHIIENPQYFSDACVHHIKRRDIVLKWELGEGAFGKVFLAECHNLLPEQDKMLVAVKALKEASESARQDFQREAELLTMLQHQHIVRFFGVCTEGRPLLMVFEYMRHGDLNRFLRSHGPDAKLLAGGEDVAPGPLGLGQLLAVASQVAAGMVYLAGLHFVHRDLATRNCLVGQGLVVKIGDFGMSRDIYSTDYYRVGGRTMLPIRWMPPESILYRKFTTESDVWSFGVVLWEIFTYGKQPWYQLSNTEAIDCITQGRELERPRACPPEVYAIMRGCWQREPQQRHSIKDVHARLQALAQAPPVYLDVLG

| SMILES | IC50 |
| --- | --- |
| CC1(C)CCc2ncc(F)cc2C2CCCN2c2ccn3ncc(c3n2)NC1=O (racemic) [Compound 8-8] | 100 to 1000 nM |
| C[C@@H]1CCc2ncc(F)cc2N2CCC[C@H]2c2ccn3ncc(c3n2)C(=O)N1 (single isomer, unassigned) [Compound 16-10] | > 1000 nM |
| C[C@@H]1CCc2ncc(F)cc2N2CCC[C@@H]2c2ccn3ncc(c3n2)C(=O)N1 (single isomer, unassigned) [Compound 16-11] | > 1000 nM |
| C=C1c2ncc(F)cc2[C@H]2[C@@H]3C[C@@H]3CN2c2ccn3ncc(c3n2)C(=O)N[C@@H]1C (single isomer, unassigned) [Compound 21-4] | < 100 nM |
| C=C1c2ncc(F)cc2[C@@H]2[C@H]3C[C@H]3CN2c2ccn3ncc(c3n2)C(=O)N[C@@H]1C (single isomer, unassigned) [Compound 21-5] | 100 to 1000 nM |
| C[C@H]1CNC(=O)c2cnn3ccc(nc23)N2C[C@H]3C[C@H]3[C@@H]2c2cc(F)cn1c2=O (single isomer, unassigned) [Compound 23-3] | < 100 nM |
| C[C@H]1CNC(=O)c2cnn3ccc(nc23)N2C[C@@H]3C[C@@H]3[C@H]2c2cc(F)cn1c2=O (single isomer, unassigned) [Compound 23-4] | > 1000 nM |
| C[C@@H]1CCc2ncc(F)cc2N2CCCN2c2ccn3ncc(c3n2)C(=O)N1 [Compound 1-8, (R,1^3E,1^4E)-3^5-fluoro-6-methyl-7-aza-1(5,3)-pyrazolo[1,5-a]pyrimidine-3(3,2)-pyridina-2(1,2)-pyrazalidinacyclooctaphan-8-one] | < 100 nM |
| C[C@@H]1CCc2ccccc2N2CCCN2c2ccn3ncc(c3n2)C(=O)N1 [Compound 1-17, (R,1^3E,1^4E)-6-methyl-7-aza-1(5,3)-pyrazolo[1,5-a]pyrimidine-2(1,2)-pyrazolidina-3(1,2)-benzacyclooctaphan-8-one] | < 100 nM |
| C[C@@H]1CCn2cc(F)cc(c2=O)N2CCCN2c2ccn3ncc(c3n2)C(=O)N1 [Compound 3-3] | > 1000 nM |
| C[C@@H]1CCOc2ncc(F)cc2N2CCCN2c2ccn3ncc(c3n2)C(=O)N1 [Compound 4-3] | < 100 nM |
| C[C@@H]1CCc2ncc(F)cc2N2CCC(=O)N2c2ccn3ncc(c3n2)C(=O)N1 [Compound 5-6] | 100 to 1000 nM |
| C[C@@H]1CCc2ncc(F)cc2N2CC3(CC3)CN2c2ccn3ncc(c3n2)C(=O)N1 [Compound 6-10] | < 100 nM |
| C[C@@H]1CCc2ncc(F)cc2[C@H]2CCCN2c2ccc3ncc(n3n2)C(=O)N1 [Compound 7-11] | < 100 nM |
| C[C@@H]1CCc2ncc(F)cc2[C@@H]2CCCN2c2ccc3ncc(n3n2)C(=O)N1 [Compound 7-12] | > 1000 nM |
| C[C@@H]1/C=C/c2ncc(F)cc2[C@H]2CCCN2c2ccn3ncc(c3n2)C(=O)N1 [Compound 9-7] | < 100 nM |
| C[C@@H]1/C=C\c2ncc(F)cc2[C@H]2CCCN2c2ccn3ncc(c3n2)C(=O)N1 [Compound 10-5] | < 100 nM |
| C[C@@H]1/C=C\c2ncc(F)cc2[C@@H]2CCCN2c2ccn3ncc(c3n2)C(=O)N1 [Compound 10-6] | 100 to 1000 nM |
| C=C1c2ncc(F)cc2[C@@H]2CCCN2c2ccn3ncc(c3n2)C(=O)N[C@@H]1C [Compound 11-5] | > 1000 nM |

| SMILES | IC50 |
| --- | --- |
| CC1c2ncc(F)cc2[C@H]2CCCN2c2ccn3ncc(c3n2)C(=O)N[C@@H]1C (some centres unmarked) [Compound 11-6] | < 100 nM |
| C[C@@H]1CCc2cnc(F)cc2C2CCCN2c2ccc3ncc(n3n2)C(=O)N1 (some centres unmarked) [Compound 12-12] | > 1000 nM |
| C[C@@H]1CCc2ncncc2[C@H]2CCCN2c2ccc3ncc(n3n2)C(=O)N1 [Compound 13-11] | < 100 nM |
| C[C@@H]1CCc2ncncc2[C@@H]2CCCN2c2ccc3ncc(n3n2)C(=O)N1 [Compound 13-12] | 100 to 1000 nM |
| C[C@@H]1CCn2cc(nn2)[C@H]2CCCN2c2ccn3ncc(c3n2)C(=O)N1 [Compound 14-6] | > 1000 nM |
| C[C@@H]1CCn2cc(nn2)[C@@H]2CCCN2c2ccn3ncc(c3n2)C(=O)N1 [Compound 14-7] | > 1000 nM |
| C[C@@H]1CCn2nncc2[C@H]2CCCN2c2ccn3ncc(c3n2)C(=O)N1 [Compound 15-10] | > 1000 nM |
| C[C@@H]1CCc2ncc(F)cc2[C@H]2[C@@H]3[C@H](CN2c2ccn4ncc(c4n2)C(=O)N1)C3(C)C [Compound 17-12] | > 1000 nM |
| C[C@@H]1CCc2ncc(F)cc2[C@@H]2[C@H]3[C@@H](CN2c2ccn4ncc(c4n2)C(=O)N1)C3(C)C [Compound 17-13] | > 1000 nM |
| C[C@@H]1CCc2ncc(F)cc2[C@H]2[C@@H]3C[C@@H]3CN2c2ccn3ncc(c3n2)C(=O)N1 [Compound 18-11] | < 100 nM |
| C[C@@H]1CCc2ncc(F)cc2[C@@H]2[C@H]3C[C@H]3CN2c2ccn3ncc(c3n2)C(=O)N1 [Compound 18-12] | > 1000 nM |
| O=C1NC2(CCc3ncc(F)cc3[C@H]3[C@@H]4C[C@@H]4CN3c3ccn4ncc1c4n3)CC2 [Compound 19-5] | < 100 nM |
| O=C1NC2(CCc3ncc(F)cc3[C@@H]3[C@H]4C[C@H]4CN3c3ccn4ncc1c4n3)CC2 [Compound 19-6] | > 1000 nM |
| O=C1N[C@H](C2CC2)CCc2ncc(F)cc2[C@H]2[C@@H]3C[C@@H]3CN2c2ccn3ncc1c3n2 [Compound 20-5] | < 100 nM |
| O=C1N[C@H](C2CC2)CCc2ncc(F)cc2[C@@H]2[C@H]3C[C@H]3CN2c2ccn3ncc1c3n2 [Compound 20-6] | > 1000 nM |
| C[C@H]1CNC(=O)c2cnn3ccc(nc23)N2C[C@H]3C[C@H]3[C@@H]2c2cc(F)cnc2O1 [Compound 22-6] | < 100 nM |
| C[C@H]1CNC(=O)c2cnn3ccc(nc23)N2C[C@@H]3C[C@@H]3[C@H]2c2cc(F)cnc2O1 [Compound 22-7] | > 1000 nM |
| C[C@@H]1CCc2ncc(F)cc2[C@H]2[C@H]3[C@@H](CN2c2ccn4ncc(c4n2)C(=O)N1)C3(C)C [Compound 24-10] | < 100 nM |
| C[C@@H]1CCc2ncc(F)cc2[C@@H]2[C@@H]3[C@H](CN2c2ccn4ncc(c4n2)C(=O)N1)C3(C)C [Compound 24-11] | > 1000 nM |
